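48-hour exposure; five concentrations; linearly interpolated endpoints. GI50 is the concentration that inhibits growth by half. TGI: total growth inhibition.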
Columns and labels:
Experiment in all cases: growth of human tumour cells (NCI), 48 h
RPMI-8226 leukemia = tested on: RPMI-8226 leukemia
SK-MEL-5 melanoma = tested on: SK-MEL-5 melanoma
ACHN renal = tested on: ACHN renal
HT29 colon = tested on: HT29 colon
TK-10 renal = tested on: TK-10 renal
CAKI-1 renal = tested on: CAKI-1 renal
NCI/ADR-RES ovarian = tested on: NCI/ADR-RES ovarian
SK-MEL-28 melanoma = tested on: SK-MEL-28 melanoma
A498 renal = tested on: A498 renal
IGROV1 ovarian = tested on: IGROV1 ovarian

Row | SMILES | TGI (RPMI-8226 leukemia) | TGI (SK-MEL-5 melanoma) | TGI (ACHN renal) | TGI (HT29 colon) | TGI (TK-10 renal) | TGI (CAKI-1 renal) | TGI (NCI/ADR-RES ovarian) | TGI (SK-MEL-28 melanoma) | TGI (A498 renal) | TGI (IGROV1 ovarian) | GI50 (RPMI-8226 leukemia) | GI50 (SK-MEL-5 melanoma) | GI50 (ACHN renal) | GI50 (TK-10 renal) | GI50 (A498 renal) | GI50 (IGROV1 ovarian) | GI50 (NCI/ADR-RES ovarian) | GI50 (SK-MEL-28 melanoma) | GI50 (HT29 colon) | GI50 (CAKI-1 renal)
1 | O=c1[nH]nc(NCc2ccccc2)c2nnn(Cc3ccccc3)c12 | > 100 µM | > 100 µM | > 100 µM | > 100 µM | > 100 µM | > 100 µM | > 100 µM | > 100 µM | – | – | – | – | – | – | – | – | – | – | – | –
2 | OCC1COc2cc(Cl)c(Cl)cc2O1 (stereo not drawn) | > 10 µM | > 10 µM | > 10 µM | > 10 µM | > 10 µM | > 10 µM | > 10 µM | > 10 µM | > 10 µM | > 10 µM | – | – | – | – | – | – | – | – | – | –
3 | Cc1c[n+]2c3ccccc3c3ccccc3c2s1 | 57.8 µM | 17.9 µM | > 100 µM | > 100 µM | > 70.9 µM | 31.5 µM | – | 18 µM | > 100 µM | > 100 µM | – | – | – | – | – | – | – | – | – | –
4 | Cc1cccc(Br)[n+]1[O-] | > 100 µM | > 100 µM | > 100 µM | > 100 µM | > 100 µM | > 100 µM | > 100 µM | > 100 µM | – | > 100 µM | – | – | – | – | – | – | – | – | – | –
5 | NCCSc1cc(O)c2c(c1N)C(=O)c1ccccc1C2=O | – | 33.4 µM | > 100 µM | > 100 µM | > 100 µM | > 100 µM | – | > 100 µM | > 100 µM | 65.9 µM | – | – | – | – | – | – | – | – | – | –
6 | COc1cc(C2c3cc4c(cc3[C@@H](Nc3cccc(CO)c3)C3COC(=O)[C@H]23)OCO4)cc(OC)c1O (stereo partly drawn) | 2.12 µM | 2.28 µM | – | 5.15 µM | – | 1.91 µM | 59.2 µM | 22.7 µM | 1.77 µM | 17 µM | – | – | – | – | – | – | – | – | – | –
7 | COc1cc(OC)cc(-c2ccc(-c3ccc(C(=N)N)cn3)o2)c1 | 4.33 µM | 2.97 µM | 3.16 µM | – | 3.26 µM | – | 38.5 µM | 3.16 µM | 2.51 µM | 3.38 µM | 1920 nM | 1600 nM | 1710 nM | 1790 nM | 1220 nM | 1810 nM | 6.53 µM | 1650 nM | – | –
8 | C=CCN1/C(=C(\C#N)c2nc3ccccc3[nH]2)Sc2c1nc[nH]c2=O | > 100 µM | > 100 µM | > 100 µM | > 100 µM | > 100 µM | > 100 µM | – | > 100 µM | > 100 µM | > 100 µM | – | – | – | – | – | – | – | – | – | –
9 | CSCC[C@@H]1C(=O)N(C)[C@H](C(C)(C)C)N1C(=O)c1ccccc1 | > 100 µM | > 100 µM | – | > 100 µM | – | – | > 100 µM | > 100 µM | > 100 µM | > 100 µM | – | – | – | – | – | – | – | – | – | –
10 | CC(=O)c1[nH]c(NC(C)C)c(C(=S)Nc2ccccc2)c1N | 27.9 µM | 42.2 µM | > 100 µM | > 100 µM | > 100 µM | > 100 µM | > 100 µM | 87.7 µM | 82.9 µM | > 100 µM | – | – | – | – | – | – | – | – | – | –
11 | COc1cc2c3cc1Oc1c(O)c(OC)cc4c1C(Cc1ccc(O)c(c1)Oc1ccc(cc1)CC3N(C)CC2)N(C)CC4 (stereo not drawn) | 84.4 µM | 32.9 µM | 33.7 µM | 18.9 µM | 18.2 µM | 32.4 µM | – | 32.8 µM | 32.2 µM | 56.1 µM | – | – | – | – | – | – | – | – | – | –
12 | Cc1[nH]c(=O)[nH]c(=O)c1/C=C/C(=O)O (tested in a mixture with another compound) | > 625 µM | > 625 µM | – | > 625 µM | – | > 625 µM | > 625 µM | > 625 µM | > 625 µM | > 625 µM | – | – | – | – | – | – | – | – | – | –
13 | COc1cc(C(=O)O[C@H](C(=O)NCCCNC(=O)[C@@H](OC(=O)c2cc(OC)cc3c(C)cccc23)[C@]2(C)CO2)[C@]2(C)CO2)c2cccc(C)c2c1 | 2.26 µM | 0.178 µM | – | – | 0.28 µM | 0.205 µM | 0.97 µM | 0.142 µM | 1.83 µM | – | 322 nM | < 15.4 nM | – | 27.5 nM | – | – | 0.154 µM | < 37.5 nM | < 12.1 nM | 33 nM
14 | N#CC(N=Nc1ccccc1C(=O)O)C(N)=O (stereo not drawn) | > 100 µM | > 100 µM | > 100 µM | > 100 µM | > 100 µM | > 100 µM | > 100 µM | > 100 µM | – | – | – | – | – | – | – | – | – | – | – | –
15 | COc1nc2cccc(C(O)c3ccccc3)c2nc1-c1ccccc1 (stereo not drawn) | 10.8 µM | 13.1 µM | 72.9 µM | 72.4 µM | > 100 µM | 63.8 µM | 15.9 µM | > 100 µM | 11.7 µM | 44.6 µM | – | – | – | – | – | – | – | – | – | –
16 | O=C1C=CC2OC(c3ccccc3)C(O)C2O1 (stereo not drawn) | 7.65 µM | 17.1 µM | – | 35.2 µM | – | 13 µM | 15.2 µM | 11.8 µM | 5.85 µM | 29.1 µM | – | – | – | – | – | – | – | – | – | –
17 | COc1cccc(/C=N/NC(=O)CSCC(=O)N/N=C/c2cccc(OC)c2OC)c1OC | > 100 µM | > 100 µM | > 100 µM | > 100 µM | > 100 µM | > 100 µM | > 100 µM | > 100 µM | > 100 µM | > 100 µM | – | – | – | – | – | – | – | – | – | –
18 | CCC(C)C(N)C(=O)NC(CC(N)=O)C(=O)NC(CC(C)C)C(=O)NC(CCCCN)C(=O)NC(C)C(=O)NC(CC(C)C)C(=O)NC(C)C(=O)NC(C)C(=O)NC(CC(C)C)C(=O)NC(C)C(=O)NC(CCCCN)C(=O)NC(CCCCN)C(=O)NC(C(=O)NC(CC(C)C)C(N)=O)C(C)CC (stereo not drawn) | – | 14.3 µM | 27.2 µM | 35.9 µM | 27.6 µM | 22.5 µM | – | 22 µM | 32.5 µM | 34.4 µM | – | – | – | – | – | – | – | – | – | –
19 | CC1(C)[C@@H]2CC[C@]1(C)[C@H](OC(=O)/C=C/c1ccccc1)C2 | – | 30.5 µM | 31.9 µM | 33.7 µM | > 100 µM | 38 µM | 37.1 µM | 50.4 µM | 32.3 µM | 51.8 µM | – | – | – | – | – | – | – | – | – | –
20 | O=c1c2ccccc2[nH]n1Cc1ccccc1 | > 100 µM | > 100 µM | > 100 µM | > 100 µM | > 100 µM | > 100 µM | > 100 µM | > 100 µM | > 100 µM | > 100 µM | – | – | – | – | – | – | – | – | – | –

Source: PubChem BioAssay (NCI)
